Values of other authors as cited in patent publication US20230165842A1, “NEW USES” (priority 2020, published 2023).
Like-named read-outs stand apart in the source and are kept apart here.

Legend:
[1] = test system: SARS-CoV-2; details: treated 24 hours prior to infection; read-out: IC50 in Calu-3
[2] = test system: SARS-CoV-2; details: treated 24 hours prior to infection; read-out: IC50 in Vero
[3] = test system: SARS-CoV-2; details: Vero E6; for IC50: 2 h pre-treatment, 24 h
[4] = test system: Vero E6 cells
[5] = test system: SARS-CoV-2; details: virucidal activity; chlorphenamine maleate
[6] = test system: IL1β; details: curcumin group
[7] = test system: IL6; details: curcumin group
[8] = test system: IL-18 and TNF-α; details: before and after intervention
[9] = test system: Calu-3 cells
[10] = test system: SARS-CoV-2; details: Calu-3
[11] = test system: critically ill patients with COVID-19; details: compared to placebo or usual care
[12] = biological target: ACE2 (Homo sapiens, UniProt Q9BYF1); details: cell membrane chromatography and surface plasmon resonance
[13] = test system: SARS-CoV-2 Spike pseudotyped virus; details: ACE2h HEK293T cells; Control = 1
[14] = test system: SARS-CoV-2; details: pre-treated Vero-E6; MOI 0.01; 24 hours; p<0.001 vs DMSO
[15] = test system: SARS-CoV-2; details: pre-treated A549^AcE2; MOI 0.01; 24 hours; p<0.001 vs DMSO
[16] = test system: SARS-CoV-2-Wuhan-Hu-1; details: Vero C1008
[17] = test system: HCoV-OC43; details: Vero C1008; dose-dependent
[18] = test system: Vero C1008
[19] = test system: SARS-CoV-2/USA/WI1/2020
[20] = test system: SARS-CoV-2; details: Yang et al., 2020
[21] = test system: SARS-CoV-2; details: Vero-E6
[22] = test system: SARS-CoV-2; details: with increased concentrations; vs DMSO treated group
[23] = test system: Vero-E6 cells; details: read-out: CC50 in
[24] = test system: SARS-CoV-2; details: Vero E6; with reduced cytotoxicity
[25] = test system: human coronavirus (HCoV)-229E; details: MRC5 cells
[26] = test system: SARS-CoV-2; details: 10 μM; post-infection treatment; Vero E6; MOI 1

Chain of ACE2 (Q9BYF1 18-805): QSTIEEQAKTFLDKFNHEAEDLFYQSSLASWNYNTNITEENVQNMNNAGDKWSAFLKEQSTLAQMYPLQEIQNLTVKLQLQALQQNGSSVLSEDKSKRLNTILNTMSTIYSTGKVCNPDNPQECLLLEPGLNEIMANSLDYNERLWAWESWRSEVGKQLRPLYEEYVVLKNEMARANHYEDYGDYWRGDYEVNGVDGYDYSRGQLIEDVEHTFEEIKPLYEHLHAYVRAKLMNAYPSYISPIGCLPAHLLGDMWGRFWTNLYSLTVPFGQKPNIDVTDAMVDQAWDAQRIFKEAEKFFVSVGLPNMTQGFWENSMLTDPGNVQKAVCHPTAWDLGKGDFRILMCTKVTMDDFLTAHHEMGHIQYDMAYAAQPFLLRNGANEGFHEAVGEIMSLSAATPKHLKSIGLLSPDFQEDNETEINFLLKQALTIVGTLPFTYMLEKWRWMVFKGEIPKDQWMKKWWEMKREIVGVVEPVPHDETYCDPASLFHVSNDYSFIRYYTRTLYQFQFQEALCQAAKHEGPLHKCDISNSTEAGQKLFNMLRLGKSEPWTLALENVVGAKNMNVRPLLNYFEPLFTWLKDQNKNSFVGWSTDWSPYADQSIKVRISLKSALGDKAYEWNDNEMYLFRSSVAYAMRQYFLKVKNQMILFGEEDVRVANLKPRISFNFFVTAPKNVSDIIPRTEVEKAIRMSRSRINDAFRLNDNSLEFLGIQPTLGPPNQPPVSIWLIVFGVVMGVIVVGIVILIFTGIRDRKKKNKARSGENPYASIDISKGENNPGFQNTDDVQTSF

In the case of CCCCCC(=O)O[C@]1(C(C)=O)CC[C@H]2[C@@H]3CCC4=CC(=O)CC[C@]4(C)[C@H]3CC[C@@]21C [Compound 2, 17-hydroxyprogesterone-caproate], the IC50 [1] is listed as 3.87 µM and the IC50 [2] is listed as 6.3 µM.

For CN(C)CCC(c1ccc(Cl)cc1)c1ccccn1 (stereo not drawn) [Compound 16, chlorphenamine], the “Selectivity Index (SI)” value ([3]; MOI 0.004) is listed as 3.78, the IC50 ([3]; MOI 0.004) is listed as 3.14 µM and the “Selectivity Index (SI)” value ([3]; MOI 0.01) is listed as 2.94. For the same compound, the IC50 ([3]; MOI 0.01) was 4.03 µM, the CC50 [4] was 11.9 µM and the “reduction in the viral load” value [5] was 99.7%.

For COc1cc(/C=C/C(=O)CC(=O)/C=C/c2ccc(O)c(OC)c2)ccc1O [Compound 21, curcumin], the “IL1β mRNA expression level, after” value ([6]; 160 mg daily for 14 days) is given as 0.56, the “IL1β mRNA expression level, before” value ([6]; before intervention) is given as 1.01 and the “IL6 mRNA expression level, after” value ([7]; 160 mg daily for 14 days) is given as 0.58. For the same compound, the “IL6 mRNA expression level, before” value ([7]; before intervention) was 0.98 and the “expression level of IL-18 and TNF-α” value [8] was “no statistically significant differences”.

For CCOC(=O)C1=C(C)NC(C)=C(C(=O)OC)C1c1cccc(Cl)c1Cl (stereo not drawn) [Compound 30, felodipine], the CC50 [9] is listed as 123 µM and the “SI = CC50/EC50” value [10] is listed as 9784.86.

For C[C@]12CCC(=O)C=C1CC[C@@H]1[C@@H]2[C@@H](O)C[C@@]2(C)[C@H]1CC[C@]2(O)C(=O)CO [Compound 32, hydrocortisone], the “odds ratio (OR) of mortality” value [11] is given as 0.69 (95% CI, 0.43-1.12; P = .13).

In the case of CCOC(=O)N1CCC(=C2c3ccc(Cl)cc3CCc3cccnc32)CC1 [Compound 42, loratadine], the “binding to ACE2” value [12] is listed as “could bind to ACE2” and the “pseudotype entry (mean)” value [13] is listed as 0.7.

For CN1CCN(CCCN2c3ccccc3Sc3ccc(C(F)(F)F)cc32)CC1 [Compound 73, trifluoperazine], the “SARS-COV-2 replication (vRNA levels)” value [14] is listed as “successfully blocked” and the “SARS-COV-2 replication (vRNA levels)” value [15] is listed as “successfully blocked”.

In the case of C[S+]([O-])CCCCN=C=S (stereo not drawn) [Compound 139, sulforaphane], the “SARS-CoV-2-Wuhan-Hu-1 virus-associated cell death” value ([16]; dose-dependent) is listed as “effectively inhibited”, the IC50 ([16]; drug 1-2 hours before inoculation) is listed as 12 µM and the “HCoV-OC43 virus-associated cell death” value [17] is listed as “effectively inhibited”. For the same compound, the “cytotoxic dose TD50” value [18] was 73 to 89 µM, the “protein concentration in the bronchoalveolar lavage (BAL)” value ([19]; SFN daily oral gavage from one day prior to inoculation, vs untreated infected controls, P<0.0001) was “significantly lower” and the “reduction in viral titers, alveolar fluid” value ([19]; vs untreated controls, P=0.04) was 1.15 log. For the same compound, the “reduction in viral lung titers” value ([19]; vs untreated controls, normalized to PoI2Ra) was 1.5 log.

In the case of CC(CN1c2ccccc2Sc2ccccc21)N(C)C (stereo not drawn) [Compound 144, promethazine], the “Selectivity Index (SI)” value ([3]; MOI 0.004) is listed as 4.62, the IC50 ([3]; MOI 0.004) is listed as 9.21 µM and the “Selectivity Index (SI)” value ([3]; MOI 0.01) is listed as 4.08. The IC50 ([3]; MOI 0.01) was 10.4 µM, the SARS-CoV-2 entry inhibition [20] was “SARS-CoV-2 entry inhibitor” and the CC50 ([4]; Vero E6, listed as MOI 0.004) was greater than 42.6 µM. The CC50 ([4]; Vero E6, listed as MOI 0.01) was greater than 42.6 µM.

For Nc1ccn([C@@H]2O[C@H](CO)[C@@H](O)C2(F)F)c(=O)n1 [Compound 155, gemcitabine], the SI [21] is listed as 33, the EC50 ([21]; MOI 0.005) is listed as 1.24 µM and the “positive cells in IFA” value [22] is listed as “significantly decreased positive cells”. For the same compound, the CC50 [23] was greater than 40 µM.

For Oc1ccc(C=Cc2cc(O)cc(O)c2)cc1 [Compound 192, resveratrol], the “viral titer on SARS-CoV-2” value [24] is given as “showed a reduction of the viral titer”, the EC50 [25] is given as 4.6 µM and the “reduction of the viral titer” value [25] is given as 80%.

In the case of calcitriol [Compound 142], the “reduction of SARS-CoV-2 titre” value [26] is listed as 1.3 log 10.
